Values joined by “and” are separate entries in the source; they are usually repeats but may differ in a detail not shown here. Equal entries are not always repeated.
Columns and labels:
[1] = system: pre-OPCs; experiment: HD-DoE 8-factor model for stage 2 (version 2) on pre-OPCs; assay type: cell-based, human; settings: for factor contribution: positive
Procedure: To engineer the recipe of stage 2 of differentiation, cells were first cultured in the stage 1 media described in Example 1, then, 48 or 96 different combinations of effectors generated using Design-of-Experiments compression through D-optimality were robotically prepared. The effector combinations were prepared in a basal media and were subsequently added to the cells, which were then allowed to differentiate. Three days later RNA extraction was performed, and gene expression was obtained using quantitative PCR analysis. The data was normalized and modeled using partial least squares regression analysis to the effector design, resulting in the generation of gene-specific models, which after model tuning for maximal predictive power, provided explanation of the effectors ability to control the expression of individual genes, combinatorically, and individually. Solutions within the tested space could then be explored to address desirability.
At this point, due to short duration of culture (only six days in vitro) we decided to focus on maximal expression of OLIG2 and maintenance of high expression of NKX2-2, while initiating expression of SOX10, OLIG1 and PDGFRa, to guide the cells towards oligodendrocyte fate (Emery and Lu (2015). Cold Spring Harb Perspect Biol. 7:a020461; Perlman et al. (2020). Glia 68:1291-1303; Goldman and Kuypers (2015) Development 142:3983-95). In one 8-factor model, the individual and combinatorial impact of CHIR99021 (a WNT pathway agonist), AGN193109 (an RA pathway antagonist), FGF-2 (an FGFR agonist), Purmorphamine (an SHH pathway agonist), AICAR (an AMPK agonist), GW3965 (an LXR pathway agonist), GW590735 (a PPAR-a agonist) and AZD3147 (a mTOR antagonist) on further differentiation of cells were tested.

[2] = system: stage 2 early-OPCs; experiment: HD-DoE 12-factor model for stage 3 (version 1) on stage 2 early-OPCs; assay type: cell-based, human; settings: for factor contribution: positive
Procedure: In another model, the effects of Activin A and TTNPB along with LDN193189, MHY1485, PDGF-AA, AICAR, FGF2, CHIR99021, DBZ, MK2206, Purmorphamine and T3+T4 were tested on gene profile of differentiating cells. When this model was optimized for maximum expression of SOX10 at 54.7, we observed Activin A again had positive regulatory impact on its expression, with factor contribution of 4.7. Other positive factors included MK2206, with the highest factor contribution at 16.2, MHY1485 at 11.49, CHIR99021 at 9.6, DBZ at 9.3, FGF2 at 3.6 and PDGF-AA, with factor contribution less than 3 (FIG. 20).
In this model, we also investigated the conditions of expression of another important OPC gene, CSPG4 (Goldman and Kuypers (2015) Development 142:3983-95: van Tilborg et al. (2018) Glia 66:221-238).
Dynamic profile analysis was used to better assess the impact of the factors on our selected genes and find the combination set that can optimize their expression (FIG. 22). According to this analysis, even though Activin A has a positive effect on SOX10, it decreases level of PDGFRa and OLIG1. […] Moreover, SOX10 is one of the main transcription factors of oligodendrocytes, along with OLIG2 and NKX2-2, that has shown the potential to commit the stem cells to oligodendrocytes in reprogramming efforts (Wang et al. (2014) Proc Natl Acad Sci USA 111:E2885-94; Garciá-León et al. (2018) Stem Cell Reports 10:655-672). […] One of the main challenges of differentiating cells to oligodendrocyte fate is controlling the mixed population and increasing the purity of the culture by committing more cells to oligodendrocyte over neuronal identity. Therefore, DBZ was excluded from the final recipe.
At this point, we investigated the expression profile of a larger group of genes defining oligodendrocyte progenitor population at a later stage, including ID2, CNP and BCAN (Perlman et al. (2020). Glia 68:1291-1303; Goldman and Kuypers (2015) Development 142:3983-95). In this model, these genes were expressed at 1900, 660 and 44, respectively.

[3] = system: OPCs; experiment: HD-DoE 12-factor model for stage 4 on OPCs, 6 days in culture; assay type: cell-based, human
Procedure: To engineer the recipe of stage 4 of differentiation, 48 or 96 different combinations of effectors generated using Design-of-Experiments compression through D-optimality were robotically prepared. The effector combinations were prepared in a basal media and were subsequently added to the cells, which were treated with the stage 1, stage 2 and stage 3 differentiation media as described in the earlier examples to generate OPCs. […] Solutions within the tested space could then be explored to address desirability. […] Benarroch (2009) Neurology 72:1779-1785; Shi et al. (2019) Exp Ther Med, 18:1258-1266).

[4] = system: pre-OPCs; experiment: HD-DoE 12-factor model for stage 2 (version 1), 3 days on stage 1 pre-OPCs; assay type: cell-based, human; settings: for factor contribution: optimized for maximum expression of OLIG2 at 1841.6
Excerpt: To engineer the recipe of stage 2 of differentiation, cells were first cultured in the stage 1 media described in Example 1 and then treated with combinations of 8 or 12 factors for 3 days and the gene expression of cells in each condition was modeled. At this point, due to short duration of culture (only six days in vitro), we decided to focus on maximal expression of OLIG2 and maintenance of high expression of NKX2-2, while initiating expression of SOX10, OLIG1 and PDGFRa, to guide the cells towards oligodendrocyte fate (Emery and Lu (2015). Cold Spring Harb Perspect Biol. 7:a020461; Perlman et al. (2020). Glia 68:1291-1303; Goldman and. Kuypers (2015) Development 142:3983-95).
In one 12-factor model, the individual and combinatorial impact of SUN 11602 an agonist for FGF signaling pathway, FGF2, Activin A an activator of one of the receptors of TGF-b superfamily, A 8301, an inhibitor of TGF-b pathway, CHIR99021 a WNT activator, AGN193109 a RA antagonist, MK2206 an AKT inhibitor, Purmorphamine an agonist of SHH signaling pathway, AZD3147 an antagonist of mTOR pathway, MHY1485 an agonist of mTOR pathway, SC79 an agonist of AKT pathway and G06983 an inhibitor of PKC pathway, were tested.
Dynamic profile analysis was used to assess the expression levels of other genes of interests, such as NKX2-2, OLIG1 and SOX10, while the model is maximized for OLIG2. Activin A and SUN 11602 were brought down to zero due to their very low factor contribution. We observed when the model is optimized, the expression level of NKX2-2 is at 3000, PDGFRa at 1000, OLIG1 at 80 and SOX10 at 15 (FIG. 12).

[5] = system: cells cultured in stage 1 and stage 2 differentiation media; experiment: HD-DoE 8-factor model for stage 3 (version 2); assay type: cell-based, human; settings: positive
Procedure: To further differentiate the cells to an oligodendrocyte progenitor identity, additional HD-DoE experiments were performed on the cells that were cultured in stage 1 and stage 2 differentiation media. After 3 days, gene expression of cells in different combinatorial conditions were investigated. At this time, we focused on maximal expression of signature oligodendrocyte progenitor genes such as SOX10, OLIG1 and PDGFRa (Goldman and Kuypers (2015) Development 142:3983-95: Marques et al. (2016) Science 352:1326-1329). In one 8-factor model, individual and combinatorial effects of TTNPB (an RA agonist), CHIR99021, FGF-2, IGF-1, AGN193109, Purmorphamine, MHY1485 (a mTOR pathway agonist) and SC79 (an AKT pathway agonist) were tested to guide the cells toward a SOX10/PDGFRa positive population. […] CHIR99021 was also positive, with a factor contribution of 8.1 (FIG. 33).
Other positive factors were IGF-1, with a factor contribution of 11.2, CHIR99021, with a factor contribution of 8.5 and TTNPB, with a factor contribution below 1 (FIG. 34).
To confirm the impact of TTNPB, FGF-2 and IGF-1 on a bigger scale, we investigated the expression profile of a larger group of genes defining late oligodendrocyte progenitor population, such as ID2, CSPG4, FYN, SOX8, PLP1 and BCAN (Perlman et al. (2020). Glia 68:1291-1303; Goldman and Kuypers (2015) Development 142:3983-95; van Tilborg et al. (2018) Glia 66:221-238) and neuronal genes such as NEUROD1, NEUROG1 and NEUROG2 in presence of IGF-1, FGF-2 or TTNPB.

[6] = system: human pluripotent stem cells; experiment: HD-DoE #2: 13-factor model, differentiation toward anterior neuroectoderm, gene expression; assay type: cell-based
Excerpt: To further enhance the conditions for oligodendrocyte differentiation from pluripotency, we performed an additional HD-DoE experiment. We obtained additional gene regulatory models that were used for preparation of a differentiation protocol. The basis of this was a 13-factor HD-DoE experiment with focus on initiation of differentiation of cells toward anterior neuroectoderm. In this model, we focused on expression of FEZF2 and OTX2.
As shown in the results summarized in FIG. 4, the model was optimized for highest expression of OTX2 at 12755.9. According to the model of high expression of OTX2, seven effectors had positive contribution including MK2206, PD0325901, CHIR99021, LDN193189, Go6983, PD173074 and BLU9931 with highest factor contribution of 22.2 for MK2206 and lowest factor contribution of 1.7 for PD173074 and BLU9931.
As shown in the results summarized in FIG. 5, the model was optimized for highest expression of FEZF2 at 4466. When the model was optimized for maximum expression level of FEZF2, three effectors including LDN193189 with factor contribution of 19.5, PD0325901 with factor contribution of 14.6 and MK2206 with factor contribution of 12.3 were common with previous condition and three new effectors including purmorphamine-500 nM, XAV939 and SC79 were introduced.
As shown in the results summarized in FIG. 6, to fine-tune the recipe and find the optimum combination of factors for high expression of both OTX2 and FEZF2, dynamic profiling analysis was done. […] Therefore, these two factors were added to the optimized culture recipe.

[7] = dynamic profile, model maximized for OLIG2
[8] = optimized for maximum expression of OLIG1 at 454.7
[9] = optimized for maximum expression of OLIG2 at 3325
[10] = optimized for maximum expression of SOX10 at 54.7
[11] = optimized for maximum expression of CSPG4 at 38.6
[12] = model optimized for highest expression of OTX2 at 12755.9, positive contribution
[13] = dynamic profiling analysis, 13-factor model

With `Cc1nc(-c2ccc(C(F)(F)F)cc2)sc1C(=O)NCc1ccc(OC(C)(C)C(=O)O)cc1` [GW590735] the “impact on SOX10 and NKX2-2 expression” value [1, 7] was “negative impact”, the factor contribution [1, 8] was 3.1 and the factor contribution [1, 9] was 5.4.
For `NC(=O)c1ncn([C@@H]2O[C@H](CO)[C@@H](O)[C@H]2O)c1N` [AICAR], the “effect on late OPC genes ID2, CNP and BCAN” value ([2]; factor effect plots) was “positively regulates” and the factor contribution ([3]; optimized for PLP1 at 3600, negative impact) was 12 and 11.8.
`COc1ccc2c(c1)c(C1=C(c3c[nH]c4ccccc34)C(=O)NC1=O)cn2CCCN(C)C` [Go6983] was tested, and the “effect on expression of SOX10” value [4, 7] was “positively regulate”, the “impact on PDGFRA” value [4, 7] was “significant negative impact” and the factor contribution ([4]; negative impact) was 10.2 and 10.22.
`Cc1c[nH]c(-c2cnc(NCCNc3ccc(C#N)cn3)nc2-c2ccc(Cl)cc2Cl)n1` [CHIR99021] was tested, and the factor contribution [2, 10] was 9.6, the factor contribution [1, 8] was 22.8 and the factor contribution [1, 9] was 17.96. For the same molecule, the factor contribution ([5]; optimized for SOX10 at 41.04) was 8.1 and the factor contribution ([5]; optimized for maximum expression of PDGFRa at 853.4) was 8.5.
With `C[C@H]1COCCN1c1cc(C2(S(=O)(=O)C3CC3)CC2)nc(-c2ccc(NC(=S)NCCO)cc2)n1` [AZD3147] the factor contribution ([4]; positive regulatory effect) was 5.2, the factor contribution [1, 8] was 26.7 and 26.76 and the factor contribution [1, 9] was 30.2.
PDGF-AA: PDGFR pathway agonist was tested, and the factor contribution [2, 11] was 2.9 and the factor contribution [2, 10] was “less than 3”.
Work on `NC1(c2ccc(-c3nc4ccn5c(=O)[nH]nc5c4cc3-c3ccccc3)cc2)CCC1` [MK2206] yielded a factor contribution ([6]; model optimized for highest expression of FEZF2 at 4466, positive) of 12.3, a factor contribution [6, 12] of 22.2 and a factor contribution ([4]; positive regulatory effect) of 5.3. It also gave a factor contribution [2, 11] of 5.2 and a factor contribution [2, 10] of 16.2.
`Oc1nc(-c2ccc(C(F)(F)F)cc2)nc2c1CSCC2` [XAV939] was tested, and the “effect on expression of FEZF2” value [6, 13] was “significant positive effects” and the “impact on expression level of OTX2” value [6, 13] was “no negative impact”.
In the case of `C[C@H](NC(=O)Cc1cc(F)cc(F)c1)C(=O)N[C@@H]1C(=O)N(C)c2ccccc2-c2ccccc21` [DBZ], the “effect on neuronal genes” value ([2]; dynamic profile / factor effect plots) is reported as “increases neuronal genes” and the factor contribution [2, 10] is reported as 9.3.
With `C[C@H](NC(=O)Cc1cc(F)cc(F)c1)C(=O)N[C@@H]1C(=O)N(C)c2ccccc2-c2ccccc21` [GSI-XX] the “effect on expression of neuronal genes NeuroG1, NeuroG2 and NeuroD1” value ([3]; dynamic profile analysis) was “positively regulates” and the factor contribution ([3]; optimized for CNP at 1790, positive) was 7.
Work on `CCN(CC)CCCCNc1ncc2cc(-c3cc(OC)cc(OC)c3)c(NC(=O)NC(C)(C)C)nc2n1` [PD173074] yielded a factor contribution [6, 12] of 1.7.
Molecule `C=CC(=O)Nc1cccc(C)c1Nc1ncc2cc(-c3c(Cl)c(OC)cc(OC)c3Cl)ccc2n1` [BLU9931] has a factor contribution [6, 12] of 1.7.
